{
  "source": "the supplement of paper PMC10307832",
  "test_in_all_cases": "relative viability (nuclei count vs DMSO), 5 days (fraction); higher = more cells survive",
  "key": {"[1]": {"compound": "CN(C)CC1=CC(=CC=C1)N=C(C2=CC=CC=C2)C3=C(NC4=C3C=CC(=C4)C(=O)N(C)C)O", "outline": "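MetaXpress counted nuclei in 4× images of lung cancer cell lines that had been fixed, permeabilised and Hoechst-stained in one step. Before that, cells in 1536-well plates were kept overnight at 37 °C, pinned with five √10-spaced library-drug doses on vehicle-anchored plates, and cultured 5 days without medium change. Viability takes treated-well nuclei over vehicle-well nuclei and uses the median across plates. Plates were accepted only at control CV below 25% and at least one doubling.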"}, "[2]": {"compound": "CN(C)CC1=CC(=CC=C1)N=C(C2=CC=CC=C2)C3=C(NC4=C3C=CC(=C4)C(=O)N(C)C)O + CC(C)C[C@H](NC(=O)[C@H](Cc1ccccc1)NC(=O)c1cnccn1)B(O)O [Bortezomib] (partner 0.002 µM)", "outline": "(§1)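 Dosing by pin tool came one day after lung cancer cell lines were seeded in 1536-well plates, using either one drug or a fixed anchor-drug dose plus five library-drug doses (not always all listed) in √10 steps. After 5 days, nuclei were counted on 4× images. Relative viability is treated-well nuclei count divided by vehicle-well nuclei count, and values are medians of duplicate plates.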"}, "[3]": {"compound": "CN(C)CC1=CC(=CC=C1)N=C(C2=CC=CC=C2)C3=C(NC4=C3C=CC(=C4)C(=O)N(C)C)O + CC1(C)CCC(c2ccc(Cl)cc2)=C(CN2CCN(c3ccc(C(=O)NS(=O)(=O)c4ccc(N[C@H](CCN5CCOCC5)CSc5ccccc5)c(S(=O)(=O)C(F)(F)F)c4)cc3)CC2)C1 [Navitoclax] (partner 0.5 µM)", "outline": "as §1"}, "[4]": {"compound": "CN(C)CC1=CC(=CC=C1)N=C(C2=CC=CC=C2)C3=C(NC4=C3C=CC(=C4)C(=O)N(C)C)O + COc1cc2c(Oc3ccc(NC(=O)C4(C(=O)Nc5ccc(F)cc5)CC4)cc3F)ccnc2cc1OCCCN1CCOCC1 [Foretinib] (partner 0.25 µM)", "outline": "as §1"}, "[5]": {"compound": "CN(C)CC1=CC(=CC=C1)N=C(C2=CC=CC=C2)C3=C(NC4=C3C=CC(=C4)C(=O)N(C)C)O + CS(=O)(=O)CCNCc1ccc(-c2ccc3ncnc(Nc4ccc(OCc5cccc(F)c5)c(Cl)c4)c3c2)o1 [Lapatinib] (partner 2 µM)", "outline": "as §1"}, "[6]": {"compound": "CN(C)CC1=CC(=CC=C1)N=C(C2=CC=CC=C2)C3=C(NC4=C3C=CC(=C4)C(=O)N(C)C)O + CS(=O)(=O)N1CCN(Cc2cc3nc(-c4cccc5[nH]ncc45)nc(N4CCOCC4)c3s2)CC1 [Pictilisib] (partner 1 µM)", "outline": "as §1"}, "[7]": {"compound": "CN(C)CC1=CC(=CC=C1)N=C(C2=CC=CC=C2)C3=C(NC4=C3C=CC(=C4)C(=O)N(C)C)O + C[C@@H](Oc1cc(-c2cnn(C3CCNCC3)c2)cnc1N)c1c(Cl)ccc(F)c1Cl [Crizotinib] (partner 1 µM)", "outline": "as §1"}, "[8]": {"compound": "CN(C)CC1=CC(=CC=C1)N=C(C2=CC=CC=C2)C3=C(NC4=C3C=CC(=C4)C(=O)N(C)C)O + C[C@]1(O)C[C@@H](c2nc(-c3ccc4ccc(-c5ccccc5)nc4c3)c3c(N)nccn32)C1 [Linsitinib] (partner 1 µM)", "outline": "as §1"}, "[9]": {"compound": "CN(C)CC1=CC(=CC=C1)N=C(C2=CC=CC=C2)C3=C(NC4=C3C=CC(=C4)C(=O)N(C)C)O + Cc1nc(NC(=O)N2CCC[C@H]2C(N)=O)sc1-c1ccnc(C(C)(C)C(F)(F)F)c1 [Alpelisib] (partner 2 µM)", "outline": "as §1"}, "[10]": {"compound": "CN(C)CC1=CC(=CC=C1)N=C(C2=CC=CC=C2)C3=C(NC4=C3C=CC(=C4)C(=O)N(C)C)O + NC(=O)Nc1cc(-c2cccc(F)c2)sc1C(=O)N[C@H]1CCCNC1 [AZD7762] (partner 0.2 µM)", "outline": "as §1"}, "[11]": {"compound": "CN(C)CC1=CC(=CC=C1)N=C(C2=CC=CC=C2)C3=C(NC4=C3C=CC(=C4)C(=O)N(C)C)O + O=C(c1cc(Cc2n[nH]c(=O)c3ccccc23)ccc1F)N1CCN(C(=O)C2CC2)CC1 [Olaparib] (partner 8 µM)", "outline": "as §1"}},
  "data": [
    {"cell line": "NCI-H1703", "values": [
      {"measurement": "relative viability", "setting": "[1]; 0.08 µM", "value": 0.989},
      {"measurement": "relative viability", "setting": "[1]; 0.253 µM", "value": 0.847},
      {"measurement": "relative viability", "setting": "[1]; 0.8 µM", "value": 1.11},
      {"measurement": "relative viability", "setting": "[1]; 2.53 µM", "value": 0.63},
      {"measurement": "relative viability", "setting": "[1]; 8 µM", "value": 0.349},
      {"measurement": "relative viability", "setting": "[2]; first compound 0.08 µM", "value": 0.311},
      {"measurement": "relative viability", "setting": "[2]; first compound 0.253 µM", "value": 0.307},
      {"measurement": "relative viability", "setting": "[2]; first compound 0.8 µM", "value": 0.377},
      {"measurement": "relative viability", "setting": "[2]; first compound 2.53 µM", "value": 0.29},
      {"measurement": "relative viability", "setting": "[2]; first compound 8 µM", "value": 0.207},
      {"measurement": "relative viability", "setting": "[3]; first compound 0.08 µM", "value": 1.07},
      {"measurement": "relative viability", "setting": "[3]; first compound 0.253 µM", "value": 1.17},
      {"measurement": "relative viability", "setting": "[3]; first compound 0.8 µM", "value": 1.1},
      {"measurement": "relative viability", "setting": "[3]; first compound 2.53 µM", "value": 0.717},
      {"measurement": "relative viability", "setting": "[3]; first compound 8 µM", "value": 0.222},
      {"measurement": "relative viability", "setting": "[4]; first compound 0.08 µM", "value": 0.334},
      {"measurement": "relative viability", "setting": "[4]; first compound 0.253 µM", "value": 0.489},
      {"measurement": "relative viability", "setting": "[4]; first compound 0.8 µM", "value": 0.333},
      {"measurement": "relative viability", "setting": "[4]; first compound 2.53 µM", "value": 0.261},
      {"measurement": "relative viability", "setting": "[4]; first compound 8 µM", "value": 0.316},
      {"measurement": "relative viability", "setting": "[5]; first compound 0.08 µM", "value": 1.12},
      {"measurement": "relative viability", "setting": "[5]; first compound 0.253 µM", "value": 1.22},
      {"measurement": "relative viability", "setting": "[5]; first compound 0.8 µM", "value": 1.48},
      {"measurement": "relative viability", "setting": "[5]; first compound 2.53 µM", "value": 0.762},
      {"measurement": "relative viability", "setting": "[5]; first compound 8 µM", "value": 0.296},
      {"measurement": "relative viability", "setting": "[6]; first compound 0.08 µM", "value": 0.377},
      {"measurement": "relative viability", "setting": "[6]; first compound 0.8 µM", "value": 0.26},
      {"measurement": "relative viability", "setting": "[6]; first compound 2.53 µM", "value": 0.215},
      {"measurement": "relative viability", "setting": "[6]; first compound 8 µM", "value": 0.223},
      {"measurement": "relative viability", "setting": "[7]; first compound 0.08 µM", "value": 0.65},
      {"measurement": "relative viability", "setting": "[7]; first compound 0.253 µM", "value": 0.591},
      {"measurement": "relative viability", "setting": "[7]; first compound 0.8 µM", "value": 0.715},
      {"measurement": "relative viability", "setting": "[7]; first compound 2.53 µM", "value": 0.341},
      {"measurement": "relative viability", "setting": "[7]; first compound 8 µM", "value": 0.138},
      {"measurement": "relative viability", "setting": "[8]; first compound 0.08 µM", "value": 0.625},
      {"measurement": "relative viability", "setting": "[8]; first compound 0.253 µM", "value": 0.781},
      {"measurement": "relative viability", "setting": "[8]; first compound 0.8 µM", "value": 0.701},
      {"measurement": "relative viability", "setting": "[8]; first compound 2.53 µM", "value": 0.61},
      {"measurement": "relative viability", "setting": "[8]; first compound 8 µM", "value": 0.192},
      {"measurement": "relative viability", "setting": "[9]; first compound 0.08 µM", "value": 0.354},
      {"measurement": "relative viability", "setting": "[9]; first compound 0.253 µM", "value": 0.282},
      {"measurement": "relative viability", "setting": "[9]; first compound 0.8 µM", "value": 0.41},
      {"measurement": "relative viability", "setting": "[9]; first compound 2.53 µM", "value": 0.22},
      {"measurement": "relative viability", "setting": "[9]; first compound 8 µM", "value": 0.184},
      {"measurement": "relative viability", "setting": "[10]; first compound 0.08 µM", "value": 0.128},
      {"measurement": "relative viability", "setting": "[10]; first compound 0.253 µM", "value": 0.126},
      {"measurement": "relative viability", "setting": "[10]; first compound 0.8 µM", "value": 0.119},
      {"measurement": "relative viability", "setting": "[10]; first compound 2.53 µM", "value": 0.133},
      {"measurement": "relative viability", "setting": "[10]; first compound 8 µM", "value": 0.0959},
      {"measurement": "relative viability", "setting": "[11]; first compound 0.08 µM", "value": 0.375},
      {"measurement": "relative viability", "setting": "[11]; first compound 0.253 µM", "value": 0.559},
      {"measurement": "relative viability", "setting": "[11]; first compound 0.8 µM", "value": 0.39},
      {"measurement": "relative viability", "setting": "[11]; first compound 2.53 µM", "value": 0.199},
      {"measurement": "relative viability", "setting": "[11]; first compound 8 µM", "value": 0.214}
    ]}
  ]
}
